Assay results from patent publication US9211290B2, “Solid dispersions of amorphous paroxetine mesylate” (priority 2012, dated 2015).

Assays:
[1] = Aqueous solubility of paroxetine mesylate Form A; assay type: physicochemical; conditions: water
[2] = Physical stability of solid dispersions exposed in open containers to temperature/humidity stress (PLM, XRPD); assay type: physicochemical
Description: X-ray Powder Diffraction (XRPD): XRPD patterns were collected using a PANalytical X'Pert Pro diffractometer. The specimen was analyzed using Cu radiation produced using an Optix long fine-focus source. An elliptically graded multilayer mirror was used to focus the Cu Kα X-rays of the source through the specimen and onto the detector. The specimen was sandwiched between 3-micron thick films, analyzed in transmission geometry, and rotated to optimize orientation statistics. Soller slits were used for the incident and diffracted beams to minimize axial divergence. Diffraction patterns were collected using a scanning position-sensitive detector (X'Celerator) located 240 mm from the specimen. Prior to the analysis, a silicon specimen (NIST standard reference material 640d) was analyzed to verify the position of the silicon 111 peak.
Polarized Light Microscopy (PLM): Polarized light microscopy was performed using a Leica DM LP microscope equipped with Spot Insight color camera (model 3.2.0). […]
Physical stability experiments were conducted by exposing the dispersions in open containers at Room Temperature (RT) and at elevated temperature and different humidities (expressed as relative humidity, RH). […]
Physical stability was evaluated visually at RT/75% RH after approximately 24 h by PLM for evidence of birefringence and extinction indicative of crystalline material. […]

| SMILES | solubility [1] [mg/mL] | Acceptable Physical Stability? RT/58% RH 3 d ([2]; 25° C./58% RH used instead of RT/58% RH (footnote b), 3 d) | Acceptable Physical Stability? 60° C./75% RH 2 h ([2]; 60° C./75% RH, 2 h) |
| --- | --- | --- | --- |
| CS(=O)(=O)O.Fc1ccc([C@@H]2CCNC[C@H]2COc2ccc3c(c2)OCO3)cc1 [paroxetine mesylate Form A, paroxetine mesylate] | > 1000 |  |  |
| CS(=O)(=O)O.Fc1ccc([C@@H]2CCNC[C@H]2COc2ccc3c(c2)OCO3)cc1 [Example 1-2, paroxetine mesylate] |  | N | N |
